Source: US20250230138A1, “COMPOUNDS HAVING A T-STRUCTURE FORMED BY AT LEAST FOUR CYCLES FOR USE IN THE TREATMENT OF CANCER AND OTHER INDICATIONS” (TheRas, Inc., priority 2022, published 2025)
Read-outs that look alike come from different tables or passages of the source.

Experiments:
pAKT in BT474 cells = assay: Cell-based pAKT HTRF assay in BT474 cells; details: BT474 cells, 4 hr incubation, read-out: pAKT inhibition IC50 in BT474 cells
In short: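 Cells grown in DMEM with 10% FBS were exposed to compounds for 4 hr in 0.25% DMSO, using a 9-point, 3-fold dilution series that starts at 3 μM. Lysates were incubated with d2 and Eu Cryptate antibodies for 4–24 h at room temperature, and HTRF was read at 615 nm emission.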

[1] = biological target: Cys242 in human PIK3CA (157-299) (Homo sapiens (Human), UniProt P42336); assay: Covalent modification assay using MALDI-TOF MS; type: biochemical; details: 4 h reaction time point
Sequence of Cys242 in human PIK3CA (157-299) (P42336 157-299): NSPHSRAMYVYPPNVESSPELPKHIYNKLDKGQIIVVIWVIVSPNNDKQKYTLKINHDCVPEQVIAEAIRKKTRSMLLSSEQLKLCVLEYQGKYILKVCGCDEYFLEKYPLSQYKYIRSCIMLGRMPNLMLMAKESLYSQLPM
In short: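 PIK3CA (157-299), 3.33 or 1 μM in 20 mM HEPES, 150 mM NaCl, 2 mM MgCl2, pH 7.3, was incubated with compound at room temperature in the dark for 15 min, 30 min, 2 h or 4 h. Linear MALDI-TOF read-out; % modification = adduct peak height over summed heights of all protein species.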

[2] = 3.33 μM protein target, 1:7.5 protein to compound ratio (compounds 1-852)
[3] = 1 μM protein target, 1:5 protein to compound ratio (compounds 853-1279)
[4] = Homo sapiens, BT-474, Compounds 10-999

IC50 (pAKT in BT474 cells; Compounds 10-999)	IC50 (pAKT in BT474 cells; Compounds 1000-1279)	IC50 (pAKT in BT474 cells; [4])	Compound	% of modification [1, 2]	% of modification [1, 3]
< 100 nM	–	–	C=CC(=O)N1CCc2ncc(-c3nc(-c4ccn(C)n4)c4ccsc4c3-c3c(F)cc(F)cc3OC(C)C)cc2C1 [Compound 404]	A (percent of modification of PIK3CA protein ≥75%)	–
< 100 nM	–	–	C=CC(=O)N1CCn2nc(-c3nc(-c4cnc5c(cnn5C)c4)c4ccsc4c3-c3c(F)cc(F)cc3OCCOC)cc2[C@@H]1C [Compound 888]	–	A (percent of modification of PIK3CA protein ≥75%)
< 100 nM	–	–	C=CC(=O)N1CCn2nc(-c3nc(-c4ccc5c(c4)CCN(C)C5)c4ccsc4c3-c3c(F)cc(F)cc3OC[C@@H](C)O)cc2[C@H]1C [Compound 721]	A (percent of modification of PIK3CA protein ≥75%)	–
–	> 1000 nM	–	COCCOc1cc(F)cc(F)c1-c1c(-c2cc3n(n2)CCN(C(=O)CCl)[C@@H]3C)nc(-c2ccc3c(cnn3C)c2)c2ccsc12 [Compound 1225]	–	A (percent of modification of PIK3CA protein ≥75%)
–	< 100 nM	–	C=CC(=O)N1CCn2nc(-c3nc(-c4ccc(OC5CN(C)C5)nc4)c4ccsc4c3-c3c(F)cc(F)cc3OCCOC)cc2C1C (centres unmarked) [Compound 1205]	–	A (percent of modification of PIK3CA protein ≥75%)
–	< 100 nM	–	C=CC(=O)N1CCc2nc(-c3nc(-c4ccc5c(c4)CNC5=O)c4ccsc4c3-c3c(F)cc(F)cc3OCCO)sc2C1 [Compound 1052]	–	A (percent of modification of PIK3CA protein ≥75%)
< 100 nM	–	–	C=CC(=O)N1CC(n2cc(-c3nc(-c4ccc5c(c4)CNC(=O)C5)c4ccsc4c3-c3ccc(F)cc3OCCOC)cn2)C1 [Compound 72]	A (percent of modification of PIK3CA protein ≥75%)	–
100 to 1000 nM	–	–	C=CC(=O)N1Cc2cc(-c3nc(-c4cnn(C(C)C)c4)c4ccsc4c3-c3c(F)cc(F)cc3OCCO)nn2[C@@H](C)C1 [Compound 728]	D (percent of modification <25%)	–
100 to 1000 nM	–	–	C=CC(=O)N1CCC(n2cc(-c3nc(-c4ccc5c(c4)CCNC5)c4ccsc4c3-c3ccc(F)cc3OCCOC)ccc2=O)CC1 [Compound 181]	A (percent of modification of PIK3CA protein ≥75%)	–
< 100 nM	–	–	C=CC(=O)N1CCc2ncc(-c3nc(-c4cncc(F)c4)c4ccsc4c3-c3c(F)cc(F)cc3OC(C)C)cc2C1 [Compound 406]	A (percent of modification of PIK3CA protein ≥75%)	–
< 100 nM	–	–	C=CC(=O)N1Cc2cc(-c3nc(-c4cnn(C)c4)c4ccsc4c3-c3c(F)cc(F)cc3OC[C@@H](C)O)nn2[C@@H](C)C1 [Compound 582]	A (percent of modification of PIK3CA protein ≥75%)	–
< 100 nM	–	–	C=CC(=O)N1Cc2cc(-c3nc(-c4cnc5c(c4)CNC(=O)C5)c4ccsc4c3-c3c(F)cc(F)cc3OC(C)C)nn2CC1C (centres unmarked) [Compound 495]	A (percent of modification of PIK3CA protein ≥75%)	–
–	–	< 100 nM	C=CC(=O)N1CCn2nc(-c3nc(-c4ccc5c(c4)C(=O)NC5)c4ccsc4c3-c3c(F)cc(F)cc3OCCOC)cc2[C@H]1C [Compound 845, 6-((S)-6-((R)-5-acryloyl-4-methyl-4,5,6,7-tetrahydropyrazolo[1,5-a]pyrazin-2-yl)-7-(2,4-difluoro-6-(2-methoxyethoxy)phenyl)thieno[3,2-c]pyridin-4-yl)isoindolin-1-one]	A (percent of modification of PIK3CA protein ≥75%)	–
< 100 nM	–	–	C=CC(=O)N1CCc2nc(-c3nc(-c4cnn(C)c4)c4ccsc4c3-c3c(F)cc(F)cc3OCCO)sc2C1 [Compound 398]	A (percent of modification of PIK3CA protein ≥75%)	–
< 100 nM	–	–	C=CC(=O)N1CCn2nc(-c3nc(-c4ccc5c(=O)n(C)ncc5c4)c4ccsc4c3-c3c(F)cc(F)cc3OCCOC)cc2C1C (centres unmarked) [Compound 914]	–	A (percent of modification of PIK3CA protein ≥75%)
< 100 nM	–	–	C=CC(=O)N1CCn2nc(-c3nc(-c4cnn(C(F)F)c4)c4ccsc4c3-c3ccc(F)cc3OCCOC)cc2C1 [Compound 245]	A (percent of modification of PIK3CA protein ≥75%)	–
< 100 nM	–	–	C=CC(=O)N1CCn2nc(-c3nc(-c4ccc5cnncc5c4)c4ccsc4c3-c3c(F)cc(F)cc3OCCO)cc2[C@@H]1C [Compound 672]	A (percent of modification of PIK3CA protein ≥75%)	–
< 100 nM	–	–	C=CC(=O)N1CCn2nc(-c3nc(-c4ccnc(N)c4)c4ccsc4c3-c3ccc(F)cc3OCCO)nc2C1 [Compound 197]	A (percent of modification of PIK3CA protein ≥75%)	–
< 100 nM	–	–	C=CC(=O)N1CCc2nc(-c3nc(-c4ccc(=O)[nH]c4)c4ccsc4c3-c3ccc(F)cc3OCCOC)sc2C1 [Compound 131]	A (percent of modification of PIK3CA protein ≥75%)	–

IC50 (pAKT in BT474 cells; Compounds 10-999)	IC50 (pAKT in BT474 cells; Compounds 1000-1279)	IC50 (pAKT in BT474 cells; [4])	Compound	% of modification [1, 2]	% of modification [1, 3]
–	< 100 nM	–	C=CC(=O)N1CCc2ncc(-c3nc(-c4ccc5c(c4)CN(CCOC)CC5(F)F)c4ccsc4c3-c3c(F)cc(F)cc3OCCOC)cc2C1 [Compound 1278]	–	A (percent of modification of PIK3CA protein ≥75%)
< 100 nM	–	–	C=CC(=O)N1Cc2cc(-c3nc(-c4cnc5c(c4)CNC5=O)c4ccsc4c3-c3c(F)cc(F)cc3OCCOC)nn2CC1C (centres unmarked) [Compound 554]	A (percent of modification of PIK3CA protein ≥75%)	–
< 100 nM	–	–	C=CC(=O)N1CC[C@@H](n2cc(-c3nc(-c4ccc(=O)n(C)c4)c4ccsc4c3-c3c(F)cc(F)cc3OC(C)C)cn2)C1 [Compound 389]	A (percent of modification of PIK3CA protein ≥75%)	–
< 100 nM	–	–	C=CC(=O)N1CCc2nc(-c3nc(-c4ccc(C5(N)COC5)cc4)c4ccsc4c3-c3c(F)cc(F)cc3OCCOC)sc2C1 [Compound 426]	A (percent of modification of PIK3CA protein ≥75%)	–
< 100 nM	–	–	C=CC(=O)N1Cc2cc(-c3nc(-c4ccnnc4)c4ccsc4c3-c3c(F)cc(F)cc3OCCOC)nn2CC1C (centres unmarked) [Compound 948]	–	A (percent of modification of PIK3CA protein ≥75%)
–	< 100 nM	–	C=CC(=O)N1CCn2nc(-c3nc(-c4cccc(OCCN(C)C)c4)c4ccsc4c3-c3c(F)cc(F)cc3OCCO)cc2C1C (centres unmarked) [Compound 1194]	–	A (percent of modification of PIK3CA protein ≥75%)
100 to 1000 nM	–	–	C=CC(=O)N1CCC(n2cc(-c3nc(-c4ccc5c(c4)CCNC5)c4ccsc4c3-c3c(F)cc(F)cc3OC(C)C)cn2)C1 (centres unmarked) [Compound 410]	A (percent of modification of PIK3CA protein ≥75%)	–
< 100 nM	–	–	C=CC(=O)N1CCn2nc(-c3nc(-c4cnn([C@@H](CO)CF)c4)c4ccsc4c3-c3ccc(F)cc3OCCOC)cc2C1 [Compound 280]	A (percent of modification of PIK3CA protein ≥75%)	–
< 100 nM	–	–	C=CC(=O)N1CCc2nc(-c3nc(-c4ccc5nncn5c4)c4ccsc4c3-c3c(F)cc(F)cc3OCCOC)sc2C1 [Compound 978]	–	A (percent of modification of PIK3CA protein ≥75%)
< 100 nM	–	–	C=CC(=O)N1CCc2nc(-c3nc(-c4ccc(N5CCNCC5)nc4)c4ccsc4c3-c3ccc(F)cc3OCCOC)sc2C1 [Compound 174]	A (percent of modification of PIK3CA protein ≥75%)	–
< 100 nM	–	–	C=CC(=O)N1CCn2nc(-c3nc(-c4ccc(N(C)C)nc4)c4ccsc4c3-c3c(F)cc(F)cc3OCCOC)cc2C1C (centres unmarked) [Compound 982]	–	A (percent of modification of PIK3CA protein ≥75%)
–	–	1000 to 3000 nM	C=CC(=O)N1CCn2nc(-c3nc(-c4ccc(=O)n(C)c4)nc(C)c3-c3ccc(F)cc3OC(C)C)cc2C1 [Compound 331, 5-[5-(4-fluoro-2-isopropoxy-phenyl)-4-methyl-6-(5-prop-2-enoyl-6,7-dihydro-4H-pyrazolo[1,5-a]pyrazin-2-yl)pyrimidin-2-yl]-1-methyl-pyridin-2-one]	A (percent of modification of PIK3CA protein ≥75%)	–
< 100 nM	–	–	C=CC(=O)N1CCc2ncc(-c3nc(-c4ccn(C)c(=O)c4)c4ccsc4c3-c3c(F)cc(F)cc3OCCOC)cc2C1 [Compound 374]	A (percent of modification of PIK3CA protein ≥75%)	–
< 100 nM	–	–	C=CC(=O)N1CCc2nc(-c3nc(-c4cnn(C)c4)c4ccsc4c3-c3c(F)cc(F)cc3OCCOC)sc2C1 [Compound 363]	A (percent of modification of PIK3CA protein ≥75%)	–
–	< 100 nM	–	C=CC(=O)N1CCn2nc(-c3nc(-c4ccc(OCCN(C)C)c(F)c4)c4ccsc4c3-c3c(F)cc(F)cc3OCCOC)cc2C1C (centres unmarked) [Compound 1077]	–	A (percent of modification of PIK3CA protein ≥75%)
–	< 100 nM	–	C=CC(=O)N1CCn2nc(-c3nc(-c4ccc5c(c4)CNC(=O)C5)c4ccsc4c3-c3c(F)cc(F)cc3OCC(C)(C)O)cc2C1C (centres unmarked) [Compound 1139]	–	A (percent of modification of PIK3CA protein ≥75%)
< 100 nM	–	–	C=CC(=O)N1CCc2ncc(-c3nc(-c4ccc5nn(C)cc5c4)c4ccsc4c3-c3c(F)cc(F)cc3OCCOC)cc2C1 [Compound 400]	A (percent of modification of PIK3CA protein ≥75%)	–
< 100 nM	–	–	C=CC(=O)N1Cc2cc(-c3nc(-c4ccc5cn[nH]c5c4)c4ccsc4c3-c3c(F)cc(F)cc3OCCOC)nn2C[C@H]1C [Compound 690]	A (percent of modification of PIK3CA protein ≥75%)	–
